Measurements taken from patent publication EP4483954A1 (Masarykova Univerzita, priority 2023, dated 2025).
pIC50: −log10 of the molar value.

Key:
Assay type in all cases: biochemical
PIM1 (h) = molecular target: T1, PIM1 (h) (Homo sapiens, UniProt P11309); experiment: radiometric kinase assay (KinaseProfiler, Eurofins), PIM1; settings: in vitro radiometric kinase assay, tested at 1 nM to 10 000 nM, no pre-incubation; read-out: inhibitory activities (IC50 values) PIM1
T1 construct: purchased Eurofins (KinaseProfiler)
T1 sequence (P11309 whole entry): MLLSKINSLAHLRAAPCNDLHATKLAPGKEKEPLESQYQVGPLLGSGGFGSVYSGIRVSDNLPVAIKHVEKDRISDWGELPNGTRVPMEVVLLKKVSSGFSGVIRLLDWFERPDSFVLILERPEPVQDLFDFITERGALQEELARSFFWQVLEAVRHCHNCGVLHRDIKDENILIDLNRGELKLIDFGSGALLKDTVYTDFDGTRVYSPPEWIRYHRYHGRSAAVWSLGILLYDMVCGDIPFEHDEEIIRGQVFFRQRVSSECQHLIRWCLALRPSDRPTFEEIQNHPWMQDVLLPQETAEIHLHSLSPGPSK
Experimental: (§1) The compounds were profiled in the radiometric assays (KinaseProfiler, Eurofins).
(§2) Briefly, kinases were diluted in the buffer shown below prior to addition to the reaction mix: • CDKL3, TAF1L: 20 mM Tris/HCl pH 8.5, 0.2 mM EDTA, 0.1% β-mercaptoethanol, 0.01% Brij-35, 5% glycerol, 1 mg/ml BSA; • Haspin: 15 mM MOPS, 0.75 mM EDTA, 0.0075% Brij-35, 3.75% Glycerol, 150 mM NaCl, 0.1% β-mercaptoethanol, 1 mg/mLBSA; • CDKL4, CLK2, PIM1, TRB2: […], 1 mM EDTA, 0.01% Brij-35, 5% Glycerol, 0.1% β-mercaptoethanol, 1 mg/mL BSA.
(§3) All compounds were prepared to 50x final assay concentration in 100% DMSO. This working stock of the compound was added to the assay well as the first component in the reaction, followed by the remaining components as detailed in the general assay protocols below. There was no pre-incubation step between the compound and the kinase prior to initiation of the reaction.
(§4) PIM1 (h) was incubated with 8 mM MOPS pH 7.0, 0.2 mM EDTA, 100 µM KKRNRTLTV (SEQ ID NO. 4), 10 mM magnesium acetate and γ-^33P-ATP (specific activity and concentration as required). The reaction was initiated by the addition of the Mg/ATP mix. After incubation for 40 minutes at room temperature, the reaction was stopped by the addition of phosphoric acid to a concentration of 0.5%. An aliquot of the reaction was then spotted onto a filter and washed four times for 4 minutes in 0.425% phosphoric acid and once in methanol prior to drying and scintillation counting.
(§5) Kinase activity data were expressed as the percent remaining kinase activity in tested samples compared to the vehicle (DMSO) reactions. The compounds were tested at the following concentrations: 1 nM, 3 nM, 10 nM, 30 nM, 100 nM, 300 nM, 1000 nM, 3000 nM, and 10 000 nM; IC50 values and curve fits were then obtained.

Haspin (h) = molecular target: T2, Haspin (h) (Homo sapiens, UniProt Q8TF76); experiment: radiometric kinase assay (KinaseProfiler, Eurofins), Haspin; settings: in vitro radiometric kinase assay, tested at 1 nM to 10 000 nM, no pre-incubation; read-out: inhibitory activities (IC50 values) Haspin
T2 construct: purchased Eurofins (KinaseProfiler)
T2 sequence (Q8TF76 1-798): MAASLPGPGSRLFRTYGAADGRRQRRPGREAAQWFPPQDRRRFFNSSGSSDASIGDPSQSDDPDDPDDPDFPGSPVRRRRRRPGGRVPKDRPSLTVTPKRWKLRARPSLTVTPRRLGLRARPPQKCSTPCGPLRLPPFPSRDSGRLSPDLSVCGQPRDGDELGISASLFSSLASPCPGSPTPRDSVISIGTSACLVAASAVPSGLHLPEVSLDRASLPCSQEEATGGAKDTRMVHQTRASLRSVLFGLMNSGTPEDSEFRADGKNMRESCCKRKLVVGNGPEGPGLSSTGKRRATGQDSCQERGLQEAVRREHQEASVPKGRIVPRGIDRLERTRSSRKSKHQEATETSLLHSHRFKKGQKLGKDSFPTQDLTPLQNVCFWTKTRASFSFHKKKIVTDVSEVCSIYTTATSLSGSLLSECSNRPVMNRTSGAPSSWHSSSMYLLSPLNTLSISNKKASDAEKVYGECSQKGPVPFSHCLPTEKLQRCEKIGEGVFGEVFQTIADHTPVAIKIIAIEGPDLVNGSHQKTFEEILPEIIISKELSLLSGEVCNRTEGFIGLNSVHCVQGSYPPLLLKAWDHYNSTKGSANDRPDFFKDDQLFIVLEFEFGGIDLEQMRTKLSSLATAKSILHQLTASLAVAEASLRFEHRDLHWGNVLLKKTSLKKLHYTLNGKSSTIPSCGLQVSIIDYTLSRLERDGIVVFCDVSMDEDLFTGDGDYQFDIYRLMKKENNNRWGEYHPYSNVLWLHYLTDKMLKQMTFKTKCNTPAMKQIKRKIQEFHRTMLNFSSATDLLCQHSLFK
Summary of the method: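 Human Haspin in 8 mM MOPS pH 7.0 with 500 µM RARTLSFAEPG, 10 mM Mg acetate and γ-33P-ATP; compound added without preincubation. Reaction ran 40 min at room temperature, then filter-bound 33P was counted. Nine concentrations from 1 to 10 000 nM gave % remaining activity versus DMSO, and IC50 came from curve fit.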

CDKL3(h) = molecular target: T3, CDKL3(h) (Homo sapiens, UniProt Q8IVW4); experiment: radiometric kinase assay (KinaseProfiler, Eurofins), CDKL3; settings: in vitro radiometric kinase assay, tested at 1 nM to 10 000 nM, no pre-incubation; read-out: inhibitory activities (IC50 values) CDKL3
T3 construct: purchased Eurofins (KinaseProfiler)
T3 sequence (Q8IVW4 whole entry): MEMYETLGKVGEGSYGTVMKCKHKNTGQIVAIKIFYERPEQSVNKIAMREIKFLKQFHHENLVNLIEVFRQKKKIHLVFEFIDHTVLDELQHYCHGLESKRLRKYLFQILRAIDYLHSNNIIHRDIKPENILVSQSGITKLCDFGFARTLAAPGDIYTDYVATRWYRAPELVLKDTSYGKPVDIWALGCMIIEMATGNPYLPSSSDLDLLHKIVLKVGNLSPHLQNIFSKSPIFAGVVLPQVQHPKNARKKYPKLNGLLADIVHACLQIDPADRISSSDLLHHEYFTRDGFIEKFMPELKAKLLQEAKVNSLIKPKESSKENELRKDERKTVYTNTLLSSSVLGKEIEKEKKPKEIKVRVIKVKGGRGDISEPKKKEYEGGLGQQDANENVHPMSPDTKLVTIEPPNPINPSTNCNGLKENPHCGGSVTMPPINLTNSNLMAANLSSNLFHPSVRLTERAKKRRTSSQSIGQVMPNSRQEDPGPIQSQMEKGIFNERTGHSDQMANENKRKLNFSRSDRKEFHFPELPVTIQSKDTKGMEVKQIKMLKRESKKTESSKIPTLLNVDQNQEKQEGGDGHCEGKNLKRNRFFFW
Experimental: as §1, §2, §3
CDKL3(h) was incubated with 8 mM MOPS pH 7.0, 0.2 mM EDTA, 250 µM RRRFRPASPLRGPPK (SEQ ID NO. 1), 10 mM magnesium acetate and γ-^33P-ATP (specific activity and concentration as required). The reaction was initiated by the addition of the Mg/ATP mix. After incubation for 120 minutes at room temperature, the reaction was stopped by the addition of phosphoric acid to a concentration of 0.5%. An aliquot of the stopped reaction was spotted onto a filter and washed four times for 4 minutes in 0.425% phosphoric acid and once in methanol prior to drying and scintillation counting.
as §5

CLK2 (h) = molecular target: T4, CLK2 (h) (Homo sapiens, UniProt P49760); experiment: radiometric kinase assay (KinaseProfiler, Eurofins), CLK2; settings: in vitro radiometric kinase assay, tested at 1 nM to 10 000 nM, no pre-incubation; read-out: inhibitory activities (IC50 values) CLK2
T4 construct: purchased Eurofins (KinaseProfiler)
T4 sequence (P49760 whole entry): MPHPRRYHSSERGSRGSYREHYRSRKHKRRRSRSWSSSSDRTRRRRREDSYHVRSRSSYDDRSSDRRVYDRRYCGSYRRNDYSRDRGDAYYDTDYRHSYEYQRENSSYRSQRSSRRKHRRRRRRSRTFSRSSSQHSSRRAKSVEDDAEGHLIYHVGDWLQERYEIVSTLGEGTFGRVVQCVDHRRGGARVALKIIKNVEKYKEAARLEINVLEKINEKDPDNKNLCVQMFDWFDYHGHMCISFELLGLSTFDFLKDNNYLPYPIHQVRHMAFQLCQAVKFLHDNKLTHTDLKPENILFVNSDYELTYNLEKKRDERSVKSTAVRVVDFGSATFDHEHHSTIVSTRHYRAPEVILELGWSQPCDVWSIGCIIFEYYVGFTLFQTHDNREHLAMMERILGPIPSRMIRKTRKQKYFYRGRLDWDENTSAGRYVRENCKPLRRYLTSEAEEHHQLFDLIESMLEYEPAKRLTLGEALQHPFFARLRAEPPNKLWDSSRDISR
Experimental: as §1, §2, §3
as §4, with “CLK2” for “PIM1”, “20” for “100”, “[…](p)EDEEE” for “KKRNRTLTV”, “2),” for “4),”
as §5

Row | Compound | pIC50 (PIM1 (h)) | pIC50 (Haspin (h)) | pIC50 (CDKL3(h)) | pIC50 (CLK2 (h))
1 | Cc1nn(C)c(C)c1-c1ccc2scc(-c3ccncc3)c2n1 [Preparative Example 85, 3-(pyridin-4-yl)-5-(1,3,5-trimethyl-1H-pyrazol-4-yl)thieno[3,2-b]pyridine] | 5.00 to 5.52 | 5.52 to 6.30 | 5.52 to 6.30 | 5.00 to 5.52
2 | Cc1cnccc1-c1csc2ccc(-c3cnn(C)c3)nc12 [Preparative Example 32, 5-(1-methyl-1H-pyrazol-4-yl)-3-(3-methylpyridin-4-yl)thieno[3,2-b]pyridine] | 5.52 to 6.30 | 5.00 to 5.52 | 5.52 to 6.30 | 5.00 to 5.52
3 | Cn1cc(-c2cc(Cl)c3scc(-c4ccncc4)c3n2)cn1 [Preparative Example 162, 7-chloro-5-(1-methyl-1H-pyrazol-4-yl)-3-(pyridin-4-yl)thieno[3,2-b]pyridine] | 5.52 to 6.30 | 5.52 to 6.30 | 6.30 to 7.00 | 5.52 to 6.30
4 | Cc1cc(-c2csc3ccc(-c4cnn(C)c4)nc23)ccn1 [Preparative Example 15, 5-(1-methyl-1H-pyrazol-4-yl)-3-(2-methylpyridin-4-yl)-thieno[3,2-b]pyridine] | 6.30 to 7.00 | 6.30 to 7.00 | 6.30 to 7.00 | 5.52 to 6.30
5 | Cn1cc(-c2ccc3scc(Nc4ccccc4)c3n2)cn1 [Preparative Example 76, 5-(1-methyl-1H-pyrazol-4-yl)-N-phenylthieno[3,2-b]pyridin-3-amine] | 6.30 to 7.00 | 6.30 to 7.00 | 7.00 to 7.70 | 5.52 to 6.30

Results, then the compound that gave them:

Row | pIC50 (PIM1 (h)) | pIC50 (Haspin (h)) | pIC50 (CDKL3(h)) | pIC50 (CLK2 (h)) | Compound
6 | 6.30 to 7.00 | 7.00 to 7.70 | 6.30 to 7.00 | 5.52 to 6.30 | Cn1cc(-c2ccc3scc(-c4cncs4)c3n2)cn1 [Preparative Example 69, 5-(1-methyl-1H-pyrazol-4-yl)-3-(thiazol-5-yl)thieno[3,2-b]pyridine]
7 | 6.30 to 7.00 | 7.00 to 7.70 | 6.30 to 7.00 | 5.00 to 5.52 | Cn1cc(-c2ccc3scc(-c4ccncc4)c3n2)cn1 [Preparative Example 13, 5-(1-methyl-1H-pyrazol-4-yl)-3-(pyridin-4-yl)thieno[3,2-b]pyridine]
8 | 6.30 to 7.00 | 7.00 to 7.70 | 5.52 to 6.30 | 5.00 to 5.52 | Cn1cc(-c2ccc3scc(-c4ccnc(CN)c4)c3n2)cn1 [Preparative Example 28, (4-(5-(1-methyl-1H-pyrazol-4-yl)thieno[3,2-b]pyridin-3-yl)pyridin-2-yl)methanamine]
9 | 6.30 to 7.00 | 6.30 to 7.00 | 5.52 to 6.30 | 5.00 to 5.52 | Cc1cc(-c2csc3ccc(-c4cnn(C)c4)nc23)cc(C)n1 [Preparative Example 30, 3-(2,6-dimethylpyridin-4-yl)-5-(1-methyl-1H-pyrazol-4-yl)thieno-[3,2-b]pyridine]
